What all share (type): biochemical
One test has as its target GST-tagged SIK3 (Homo sapiens (Human), UniProt Q9Y2K2). Kind of test: SIK3 inhibition test (ADP-Glo Max Assay). Conditions: enzyme 100 nM, AMARA Peptide 100 μM, ATP 1 mM, 2 hours room temperature. The essentials:
(§1)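 GST-tagged human SIK1, SIK2 and SIK3 at 20 nM, 3 nM and 100 nM final in Tris pH 7.5 buffer, with AMARA peptide (200 μM for SIK1/SIK2, 100 μM for SIK3), 1 mM ATP and 5 mM MgCl2. Reaction ran 2 h at room temperature. ADP read by ADP-Glo Max luminescence, and IC50 fitted from 16 concentrations.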
In general terms: ADP-Glo first removes unused ATP, then detects ADP through luciferase.

The target in another test is GST-tagged SIK2 (Homo sapiens (Human), UniProt Q9H0K1). The experiment in a line: SIK2 inhibition test (ADP-Glo Max Assay). Conditions: enzyme 3 nM, AMARA Peptide 200 μM, ATP 1 mM, 2 hours room temperature. The essentials: as §1
Sequence of GST-tagged SIK2 (Q9H0K1 whole entry): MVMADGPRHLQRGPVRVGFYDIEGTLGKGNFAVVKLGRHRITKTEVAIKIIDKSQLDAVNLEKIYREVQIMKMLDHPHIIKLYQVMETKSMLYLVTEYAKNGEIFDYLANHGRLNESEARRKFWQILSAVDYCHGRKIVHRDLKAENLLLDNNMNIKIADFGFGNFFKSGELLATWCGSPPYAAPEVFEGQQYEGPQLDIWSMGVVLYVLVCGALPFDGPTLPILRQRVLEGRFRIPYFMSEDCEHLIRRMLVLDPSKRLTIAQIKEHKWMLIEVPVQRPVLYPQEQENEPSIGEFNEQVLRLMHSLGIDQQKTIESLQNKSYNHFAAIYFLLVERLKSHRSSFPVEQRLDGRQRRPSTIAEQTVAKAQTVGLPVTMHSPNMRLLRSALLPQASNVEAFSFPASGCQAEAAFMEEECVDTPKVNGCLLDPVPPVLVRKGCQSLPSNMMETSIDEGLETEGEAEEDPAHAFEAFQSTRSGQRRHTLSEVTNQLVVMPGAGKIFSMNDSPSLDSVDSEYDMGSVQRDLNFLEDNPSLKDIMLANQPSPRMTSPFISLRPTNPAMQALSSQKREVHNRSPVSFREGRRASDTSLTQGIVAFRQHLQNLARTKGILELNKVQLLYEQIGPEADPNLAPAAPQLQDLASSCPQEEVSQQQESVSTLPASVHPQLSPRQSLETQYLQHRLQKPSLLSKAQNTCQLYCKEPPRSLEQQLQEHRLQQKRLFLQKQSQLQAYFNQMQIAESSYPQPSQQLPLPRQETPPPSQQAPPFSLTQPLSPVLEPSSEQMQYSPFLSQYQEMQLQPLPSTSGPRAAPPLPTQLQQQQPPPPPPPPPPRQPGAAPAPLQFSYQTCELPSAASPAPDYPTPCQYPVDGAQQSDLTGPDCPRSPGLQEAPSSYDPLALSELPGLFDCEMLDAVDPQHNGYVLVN
A further test addresses GST-tagged SIK1 (Homo sapiens (Human), UniProt P57059). The experiment in a line: SIK1 inhibition test (ADP-Glo Max Assay). Conditions: enzyme 20 nM, AMARA Peptide 200 μM, ATP 1 mM, 2 hours room temperature. The method, boiled down: as §1

Sequence of GST-tagged SIK1 (P57059 whole entry): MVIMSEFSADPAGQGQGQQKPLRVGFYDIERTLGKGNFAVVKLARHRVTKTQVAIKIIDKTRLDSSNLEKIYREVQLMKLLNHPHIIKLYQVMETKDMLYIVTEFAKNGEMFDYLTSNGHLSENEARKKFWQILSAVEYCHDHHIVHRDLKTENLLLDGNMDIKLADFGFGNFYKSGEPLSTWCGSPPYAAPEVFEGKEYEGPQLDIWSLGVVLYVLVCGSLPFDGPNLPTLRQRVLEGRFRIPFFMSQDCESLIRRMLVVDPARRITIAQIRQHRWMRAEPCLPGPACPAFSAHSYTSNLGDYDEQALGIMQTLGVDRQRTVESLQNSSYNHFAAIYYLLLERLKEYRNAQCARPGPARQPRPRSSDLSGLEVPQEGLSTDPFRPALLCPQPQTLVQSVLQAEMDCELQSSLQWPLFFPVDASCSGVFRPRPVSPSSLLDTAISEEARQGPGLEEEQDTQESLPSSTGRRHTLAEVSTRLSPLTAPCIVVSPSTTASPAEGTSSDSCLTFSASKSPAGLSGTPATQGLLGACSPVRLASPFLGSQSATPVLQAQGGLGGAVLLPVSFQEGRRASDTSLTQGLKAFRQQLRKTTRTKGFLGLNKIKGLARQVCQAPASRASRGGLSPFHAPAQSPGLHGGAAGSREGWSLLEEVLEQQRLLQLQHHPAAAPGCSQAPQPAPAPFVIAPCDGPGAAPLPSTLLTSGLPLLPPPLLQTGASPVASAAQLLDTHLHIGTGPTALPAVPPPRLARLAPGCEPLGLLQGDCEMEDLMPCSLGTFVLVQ
Sequence of GST-tagged SIK3 (Q9Y2K2 whole entry): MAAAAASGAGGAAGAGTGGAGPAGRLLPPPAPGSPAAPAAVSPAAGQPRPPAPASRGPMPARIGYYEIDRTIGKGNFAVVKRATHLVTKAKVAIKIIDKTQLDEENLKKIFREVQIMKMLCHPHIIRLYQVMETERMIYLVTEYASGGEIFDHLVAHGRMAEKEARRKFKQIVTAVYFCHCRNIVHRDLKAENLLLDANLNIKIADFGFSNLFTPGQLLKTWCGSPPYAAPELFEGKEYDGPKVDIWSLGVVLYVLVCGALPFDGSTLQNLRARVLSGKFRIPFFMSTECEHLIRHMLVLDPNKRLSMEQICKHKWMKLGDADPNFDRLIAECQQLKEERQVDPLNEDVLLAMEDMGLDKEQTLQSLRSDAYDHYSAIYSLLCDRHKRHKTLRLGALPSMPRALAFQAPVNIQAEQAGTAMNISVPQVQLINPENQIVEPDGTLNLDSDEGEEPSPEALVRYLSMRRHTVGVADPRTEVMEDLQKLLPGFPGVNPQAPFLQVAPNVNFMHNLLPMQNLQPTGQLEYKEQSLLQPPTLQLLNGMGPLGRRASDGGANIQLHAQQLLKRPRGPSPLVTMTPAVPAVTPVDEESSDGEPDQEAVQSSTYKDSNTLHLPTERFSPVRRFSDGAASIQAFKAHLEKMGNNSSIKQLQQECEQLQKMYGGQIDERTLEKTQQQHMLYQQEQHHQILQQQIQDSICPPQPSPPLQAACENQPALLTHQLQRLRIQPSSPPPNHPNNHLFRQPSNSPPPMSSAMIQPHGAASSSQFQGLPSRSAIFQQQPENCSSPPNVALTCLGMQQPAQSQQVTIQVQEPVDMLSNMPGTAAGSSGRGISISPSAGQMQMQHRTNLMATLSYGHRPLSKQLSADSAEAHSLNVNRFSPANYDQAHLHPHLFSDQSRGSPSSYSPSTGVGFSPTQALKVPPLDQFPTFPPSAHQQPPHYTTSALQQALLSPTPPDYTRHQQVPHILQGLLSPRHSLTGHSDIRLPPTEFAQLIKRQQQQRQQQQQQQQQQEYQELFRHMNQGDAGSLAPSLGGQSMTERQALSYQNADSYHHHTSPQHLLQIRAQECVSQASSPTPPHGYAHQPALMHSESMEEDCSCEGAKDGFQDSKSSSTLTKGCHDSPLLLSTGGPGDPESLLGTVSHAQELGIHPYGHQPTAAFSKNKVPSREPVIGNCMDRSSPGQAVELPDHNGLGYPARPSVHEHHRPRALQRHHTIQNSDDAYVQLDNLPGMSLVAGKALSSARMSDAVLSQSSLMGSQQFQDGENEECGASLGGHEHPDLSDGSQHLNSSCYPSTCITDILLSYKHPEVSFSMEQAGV

What is called IC50 is the concentration that inhibits the measured activity by half. Lower therefore signals greater potency in that assay. Consider `COc1cc(-c2c3c(C#N)cc(-c4cnn(CC5CS(=O)(=O)C5)c4)cc3nn2C)cc(OC(F)F)c1C(=O)NCC1(F)CC1` [Example 74, 4-[4-cyano-6-[1-[(1,1-dioxothietan-3-yl)methyl]pyrazol-4-yl]-2-methylindazol-3-yl]-2-(difluoromethoxy)-N-[(1-fluorocyclopropyl)methyl]-6-methoxybenzamide], for which the values for the IC50 on GST-tagged SIK3, at GST-tagged SIK2 and on GST-tagged SIK1 were 6.1 nM, 2.6 nM and 8.4 nM, respectively.
As for `COc1cc(-c2c3c(C#N)cc(-c4cnn(Cc5ncco5)c4)cc3nn2C)cc(OC(F)F)c1C(=O)NCC1(F)CC1` [Example 75], the IC50 against GST-tagged SIK3 came out at 13.3 nM; at GST-tagged SIK2 it was 2.7 nM; at GST-tagged SIK1, 14.8 nM.
As for `COc1cc(-c2c3c(C#N)cc(-c4cnn(CC5(F)COC5)c4)cc3nn2C)cc(OC(F)F)c1C(=O)NCC1(F)CC1` [Example 76, 4-[4-cyano-6-[1-[(3-fluorooxetan-3-yl)methyl]pyrazol-4-yl]-2-methylindazol-3-yl]-2-(difluoromethoxy)-N-[(1-fluorocyclopropyl)methyl]-6-methoxybenzamide], the IC50 on GST-tagged SIK3 worked out at 11.7 nM; against GST-tagged SIK2 it was 5.3 nM; at GST-tagged SIK1, 17.6 nM.
As to `COc1cc(-c2c3c(C#N)cc(-c4cnn(C)c4)cc3nn2C)cc2c1C(=O)NCC2C` (stereo not drawn) [Example 77, 3-(8-methoxy-4-methyl-1-oxo-3,4-dihydro-2H-isoquinolin-6-yl)-2-methyl-6-(1-methylpyrazol-4-yl)indazol-4-carbonitrile], the half-inhibitory concentration (IC50) was 10.1 nM against GST-tagged SIK3, 5.2 nM against GST-tagged SIK2 and 11.8 nM against GST-tagged SIK1.
As to `COc1cc(-c2c3c(C#N)cc(-c4cnn(CC5CCOC5)c4)cc3nn2C)cc(OC(F)F)c1C(=O)NCC1(F)CC1` (stereo not drawn) [Example 78, 4-[4-cyano-2-methyl-6-[1-(oxolan-3-ylmethyl)pyrazol-4-yl]indazol-3-yl]-2-(difluoromethoxy)-N-[(1-fluorocyclopropyl)methyl]-6-methoxybenzamide], the half-inhibitory concentration (IC50) on GST-tagged SIK3 came to 6.7 nM; on GST-tagged SIK2 it was 5.4 nM; against GST-tagged SIK1, 12.6 nM.
As to `COc1cc(-c2c3c(C#N)cc(-c4cnn(CC5CCCO5)c4)cc3nn2C)cc(OC(F)F)c1C(=O)NCC1(F)CC1` (stereo not drawn) [Example 79, 4-[4-cyano-2-methyl-6-[1-(oxolan-2-ylmethyl)pyrazol-4-yl]indazol-3-yl]-2-(difluoromethoxy)-N-[(1-fluorocyclopropyl)methyl]-6-methoxybenzamide], the IC50 on GST-tagged SIK3 was 8.1 nM; against GST-tagged SIK2 it was 6.8 nM; at GST-tagged SIK1, 12.5 nM.
As for `COc1cc(-c2c3c(C#N)cc(-c4cnn(CC5CCO5)c4)cc3nn2C)cc(OC(F)F)c1C(=O)NCC1(F)CC1` (stereo not drawn) [Example 80, 4-[4-cyano-2-methyl-6-[1-(oxetan-2-ylmethyl)pyrazol-4-yl]indazol-3-yl]-2-(difluoromethoxy)-N-[(1-fluorocyclopropyl)methyl]-6-methoxybenzamide], the IC50 is 10.1 nM on GST-tagged SIK3, 8.7 nM at GST-tagged SIK2 and 16.5 nM against GST-tagged SIK1.
Taken in the same sequence, the figures for `COc1cc(-c2c3c(C#N)cc(-c4cnn(CC5CCS5(=O)=O)c4)cc3nn2C)cc(OC(F)F)c1C(=O)NCC1(F)CC1` (stereo not drawn) [Example 81, 4-[4-cyano-6-[1-[(1,1-dioxothietan-2-yl)methyl]pyrazol-4-yl]-2-methylindazol-3-yl]-2-(difluoromethoxy)-N-[(1-fluorocyclopropyl)methyl]-6-methoxybenzamide] were 10.6 nM, 7.3 nM and 13.3 nM.
Taken in the same sequence, the figures for `COc1cc(-c2c3c(C#N)cc(-c4cnn(CC5CCCS5(=O)=O)c4)cc3nn2C)cc(OC(F)F)c1C(=O)NCC1(F)CC1` (stereo not drawn) [Example 82, 4-[4-cyano-6-[1-[(1,1-dioxothiolan-2-yl)methyl]pyrazol-4-yl]-2-methylindazol-3-yl]-2-(difluoromethoxy)-N-[(1-fluorocyclopropyl)methyl]-6-methoxybenzamide] were 16.7 nM, 7.5 nM and 16 nM.
With `COc1cc(-c2c3c(C#N)cc(-c4cnn(CC5(O)CC5)c4)cc3nn2C)cc(OC(F)F)c1C(=O)NCC1(F)CC1` [Example 83, 4-[4-cyano-6-[1-[(1-hydroxycyclopropyl)methyl]pyrazol-4-yl]-2-methylindazol-3-yl]-2-(difluoromethoxy)-N-[(1-fluorocyclopropyl)methyl]-6-methoxybenzamide], the IC50 is 10.2 nM at GST-tagged SIK3, 8.1 nM on GST-tagged SIK2 and 10.5 nM at GST-tagged SIK1.
`COc1cc(-c2c3c(C#N)cc(-c4cnn(CC5(O)CCC5)c4)cc3nn2C)cc(OC(F)F)c1C(=O)NCC1(F)CC1` [Example 84, 4-[4-cyano-6-[1-[(1-hydroxycyclobutyl)methyl]pyrazol-4-yl]-2-methylindazol-3-yl]-2-(difluoromethoxy)-N-[(1-fluorocyclopropyl)methyl]-6-methoxybenzamide]: the values for the IC50 against GST-tagged SIK3, on GST-tagged SIK2 and at GST-tagged SIK1 were 12.5 nM, 11 nM and 13.6 nM, respectively.
`COc1cc(-c2c3c(C(F)F)cc(-c4cnn(C)c4)cc3nn2C)cc(OC(F)F)c1C(N)=O` [Example 87, 2-(difluoromethoxy)-4-[4-(difluoromethyl)-2-methyl-6-(1-methylpyrazol-4-yl)indazol-3-yl]-6-methoxybenzamide]: the IC50 at GST-tagged SIK3 turned out to be 4.3 nM; at GST-tagged SIK2, 14.6 nM; against GST-tagged SIK1, 18.5 nM.
Take `COc1cc(-c2c3c(C(F)F)cc(-c4cnn(C[C@H](C)O)c4)cc3nn2C)cc(OC(F)F)c1C(=O)N[C@@H]1CC1(F)F` [Example 89, N-[(1R)-2,2-difluorocyclopropyl]-2-(difluoromethoxy)-4-[4-(difluoromethyl)-6-[1-[(2S)-2-hydroxypropyl]pyrazol-4-yl]-2-methylindazol-3-yl]-6-methoxybenzamide]: the values for the IC50 against GST-tagged SIK3, against GST-tagged SIK2 and at GST-tagged SIK1 were 2.3 nM, 12 nM and 11 nM, respectively.
On to `COc1cc(-c2c3c(C#N)cc(-c4cnn(CCC(C)(C)O)c4)cc3nn2C)cc(OC(F)F)c1C(=O)NCC1(F)CC1` [Example 90], for which the results for the IC50 against GST-tagged SIK3, on GST-tagged SIK2 and on GST-tagged SIK1 were 7.9 nM, 10.4 nM and 17.8 nM, respectively.
Consider `COc1cc(-c2c3c(C#N)cc(-c4cnn(C[C@H]5C[C@@H](O)C5)c4)cc3nn2C)cc(OC(F)F)c1C(=O)NCC1(F)CC1` [Example 91, 4-[4-cyano-6-[1-[(cis-3-hydroxycyclobutyl)methyl]pyrazol-4-yl]-2-methylindazol-3-yl]-2-(difluoromethoxy)-N-[(1-fluorocyclopropyl)methyl]-6-methoxybenzamide], for which the concentration for half-maximal inhibition (IC50) is 7.3 nM at GST-tagged SIK3, 10.1 nM at GST-tagged SIK2 and 17.5 nM at GST-tagged SIK1.
Take `COc1cc(-c2c3c(C#N)cc(-c4cnn(CC[C@@H](C)O)c4)cc3nn2C)cc(OC(F)F)c1C(=O)NCC1(F)CC1` [Example 92, 4-[4-cyano-6-[1-[(3R)-3-hydroxybutyl]pyrazol-4-yl]-2-methylindazol-3-yl]-2-(difluoromethoxy)-N-[(1-fluorocyclopropyl)methyl]-6-methoxybenzamide]: the IC50 on GST-tagged SIK3 was determined as 10.2 nM; at GST-tagged SIK2, 10.9 nM; at GST-tagged SIK1 it was 17 nM.

The record behind these values is patent US20260062387A1, “SALT-INDUCIBLE KINASE INHIBITOR COMPOUND AND PHARMACEUTICAL COMPOSITION INCLUDING THE SAME” (MITSUBISHI TANABE PHARMA CORPORATION, priority 2023, published 2026).
